Assay [1] deals with HHV-1. The assay is described as follows: HHV-1 viral entry assay on Vero cells (plaque reduction). It counts as cell-based, Human Herpesvirus 1. As to conditions: 0.1–0.8 µg/mL. On the procedure: The effect of NQ 4 in the initial phases of the HHV-1 viral replication was done as previously described by Cardozo et al., 2011 [53]. In the attachment assay, pre-chilled (1 h at 4 °C) Vero cell monolayers were exposed to viruses (100 PFU/well) in presence or absence of the compound and were incubated for 2 h at 4 °C. After incubation, the substance and unbounded viruses were removed with cold PBS; cells were overlaid with CMC 1% and incubated for 72 h at 37 °C (5% CO2). In the entry assay, pre-chilled cells were infected with viruses (100 PFU/well) and incubated for 2 h at 4 °C. After this time, the unbound viruses were removed with cold PBS; cells were treated with different concentrations of pre-warmed compound, and then incubated for 1 h at 37 °C. Unabsorbed viruses were inactivated using citrate buffer (pH = 3.0) and then cells were washed with PBS, overlaid with CMC 1%, and incubated for 72 h at 37 °C (5% CO2). In both assays, further procedures were the same mentioned previously for the plaque reduction assay and dextran sulfate (DS) was included as positive control.
In these tests, the evaluated NQ 4 concentration range was from 0.1 to 0.8 µg/mL and the effective concentration fifty (EC50), the concentration that reduces the 50% of plaque forming units, was determined from dose-effect curves by linear regression methods for each compound. […]

Assay [2] relates to HHV-2. Put plainly: Plaque reduction assay, simultaneous and post-infection treatment, Vero cells. Type of assay: cell-based, Human Herpesvirus 2. On the procedure: (§1) To define the stage of the viral replicative cycle where NQ 4 exerts its action, simultaneous and post-infection treatments against HHV-1 and HHV-2 were performed. […] First, we determined the inhibitory concentration 50% (IC50) for the compound and drug positive controls on infected cells and their effects on non-tumoral Vero cells, to define the concentration of evaluation and to calculate the antiviral selectivity index (SI). Then, the concentration of NQ 4 that reduced the number of viral plaques by 50% (EC50) was determined from the dose-response curves.
(§2) The potential antiviral mechanism of NQ 4 was evaluated by the plaque reduction assay as previously described by us. Vero cell monolayers grown in 24-well plates were infected with 100 PFU/well of each virus. For simultaneous treatment, the compound and the virus were added simultaneously to the cell monolayers and incubated for 1 h at 37 °C (5% CO2). Then, cells were washed with phosphate buffered saline (PBS, pH = 7.0) and CMC at 1% and 0.75% was added for HHV-1 and HHV-2, respectively. In post-infection treatment, virus was added to cell monolayer and incubated for 1 h at 37 °C (5% CO2). After incubation, washing was performed with PBS and molecule previously prepared in CMC 1% and 0.75% for HHV-1 and HHV-2 respectively, was added. In both treatments, NQ 4 was prepared at concentrations from 0.4 µg/mL to 3.1 µg/mL and the cell monolayers allowed to incubate for 72 h. Subsequently, cells were fixed and stained with a solution of 3.5% formaldehyde with 0.2% crystal violet, and the viral plaques were counted. Dextran sulfate (DS) was included as positive control in simultaneous assay and acyclovir (A) was the positive control in after infection treatment.
On the technique in general: Plaque reduction counts the foci of infection that form in a cell layer.

The test system of assay [3] is HHV-1. The assay is described as above. Type of assay: cell-based, Human Herpesvirus 1. On the procedure:
as §1, §2

The test system of assay [4] is DENV-2. The assay is described as follows: Plaque reduction assay, simultaneous and post-infection treatment, BHK-21 cells. It counts as cell-based, Dengue virus type 2. On the procedure: as §1
Against DENV, the effect of NQ 4 either simultaneously or post-infection was also evaluated by the plaque reduction assay as previously described. Concentrations employed for this assay were from 0.4 µg/mL to 1.6 µg/mL. In this test, BHK-21 cell monolayers grown in 24-well plates were infected with 100 PFU/well of DENV-2 and treatments were performed in the same way to describe for Herpesviruses. Moreover, the monolayers were incubated for 6 days, fixed and stained with a solution of 3.5% formaldehyde with 0.2% crystal violet, and the viral plaques were counted. Heparin (H) was included as a positive control in the simultaneous assay, and ribavirin (R) was the positive control in after infection treatment.

Where [5] appears, read: post-infective stages, acyclovir 1.5 µg/mL.
The mark [6] stands for this setting: simultaneous treatment, PFU, NQ 4 0.4–3.1 µg/mL, DS 5 µg/mL.

SMILES strings stand for the structures. “And” between values parts separate entries of the source, which are not always exact repeats. Equal entries are not always repeated.

A word on the EC50: it is the concentration needed to bring the measured effect to its halfway point. As for `CC(C)CCCc1ccc2c(c1)C(=O)C(Cl)=C(Cl)C2=O` [NQ 4], in assay [1], the “Effect on HHV-1 viral entry” value is reported as “not significant”. Besides, the EC50 in assay [2] (Human alphaherpesvirus 2, simultaneous treatment, read-out: EC50, anti-herpetic activity on pre-infective stages, HHV-2) is < 0.4 µg/mL and < 1.28 µM; in assay [3] (Human alphaherpesvirus 1, simultaneous treatment, read-out: EC50, anti-herpetic activity on pre-infective stages, HHV-1), < 0.4 µg/mL and < 1.28 µM. Further, the “Antiviral activity in post-infection treatment, HHV-2” value in assay [2] (setting [5]) is recorded as “no activity”. Also, the “Antiviral activity in simultaneous treatment, HHV-2” value in assay [2] (setting [6]) is on record as “anti-herpetic activity in all concentrations tested”. Moreover, the “Antiviral activity in post-infection treatment, HHV-1” value in assay [3] (setting [5]) was “no activity”. For the same compound, the “Antiviral activity in simultaneous treatment, HHV-1” value in assay [3] (setting [6]) is on record as “anti-herpetic activity in all concentrations tested”. Further, in assay [4] (post-infective stages, ribavirin 3.7 µg/mL), the “Antiviral activity in post-infection treatment, DENV-2” value is given as “no activity”. Also, in assay [4] (pre-infective stages), the “Concentration showing antiviral activity against DENV-2” value is 5.1 µM. The “Concentration showing significant antiviral activity against DENV-2” value in assay [4] (simultaneous treatment (pre-infective stages), tested 0.4–1.6 µg/mL) was found to be 1.6 µg/mL.
